From patent US10590118B2, “Bicyclic heterocyclic derivatives as bromodomain inhibitors” (Orion Corporation, priority 2014, dated 2020)

Biological target: T1, Bet bromodomain protein (BRD4) (Homo sapiens, UniProt O60885)
T1 construct: made in house
Experiment: Bet bromodomain TR-FRET assay
Format: binding
Details: 300 nM acetyl histone peptide substrate, results given as Group A/B/C
Summary of the method: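 In-house BRD4 protein with 300 nM acetyl histone peptide in 50 mM HEPES pH 7.5, 50 mM NaCl, 500 μM CHAPS; 30 min RT, then serially diluted compound for 30 min RT. Eu-streptavidin (2 nM) and XL-665 antibody (10 nM) added for 30 min; 665/615 nm ratio read, IC50 from sigmoid dose-response fit.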

IC50: ≤ 1 µM
Structure (SMILES): COc1cc2c(cc1-c1c(C)noc1C)OCC(=O)N2Cc1ccc(Cl)cn1 [Compound 28, 4-((5-chloropyridin-2-yl)methyl)-7-(3,5-dimethylisoxazol-4-yl)-6-methoxy-2H-benzo[b][1,4]oxazin-3(4H)-one]
